Results as given in US10807994B2, “Heterocyclic compounds and uses thereof” (NUVATION BIO INC., priority 2017, dated 2020).
Where a name gives a salt, the structure may show the parent alone. Read-outs that look alike come from different tables or passages of the source.

Tests used:
WEE1 kinase enzyme = WEE1 kinase enzyme (Homo sapiens (Human), UniProt P30291); test: WEE1 IC50 determination, LanthaScreen Terbium labeled TR-FRET kinase assay; format: biochemical; conditions: WEE1 enzyme 1 nM
Experimental: IC50 values of compounds against WEE1 kinase enzyme were determined by LanthaScreen™ Terbium Labeled TR-FRET assay. Kinase assays were performed in 1× kinase buffer (# PV6135, Invitrogen, Life Technologies Grand Island, N.Y.) where total reaction volume was 10 μl in low-volume 384-well plates (#4511, Corning). Serially diluted compounds (3-fold) were incubated with WEE1 Enzyme (1 nM) (# PR7373A, Invitrogen, Life Technologies Grand Island, N.Y.) for 10 min, following which a mixture of ATP […] (# A1852, Sigma, St-Louis, Mo.) and fluorescent-PolyGT substrate (200 nM) (# PV3610, Invitrogen, Life Technologies Grand Island, N.Y.) was added and incubated in dark at room temperature for 1 h. After 1 h, 10 μl stop solution containing Terbium labeled antibody (4 nM) (# PV3529, Invitrogen, Life Technologies Grand Island, N.Y.) and EDTA (# E5134, Sigma, St-Louis, Mo.) (20 mM) in TR-FRET dilution buffer (# PV3574, Invitrogen, Life Technologies Grand Island, N.Y.) was added. Readings were taken in a Synergy Neo Plate reader (BioTek, Winooski) at single excitation of 340 nm and Dual emission at 495 nm and 520 nm respectively.
The % activity of test samples was calculated as (Sample−Min)*100/(Max−Min). [Max: DMSO control, complete reaction with enzyme & DMSO and Min: No enzyme & DMSO]. Percent inhibition (100-% activity) was fitted to the “four-parameter logistic model” in XLfit for determination of IC50 values.

A427 cells [1] = test: Cytotoxicity assay (resazurin), A427 cells, 72 hr; format: cell-based
Experimental: (§1) A549 (CCL-185; ATCC) and A427 (HTB-53; ATCC), both lung epithelial cell lines were seeded in their respective medium (DMEM/MEM, 10569044/41090101; Gibco) at a cell count of 1500 cells per 100 μL per well in a 96 well edge plate (167425; ThermoFisher). Cells were allowed to grow at 37° C. for 24 hr in 5% CO2 environment (culture conditions) in a Nuaire incubator (humidified). Serially diluted test compounds (100 μL) within the desired testing concentration ranges were added to the culture plate were further incubated in culture conditions for 72 hr and 96 hr for A427 and A549 respectively. The experiment was terminated at the designated incubation time by replacing the medium with 100 μL of 1 mM of resazurin (R7017; Sigma) prepared in respective culture medium, and the plates were further incubated in culture conditions for 4-6 hr. Fluorescence was recorded using a multimodal plate reader (Biotek Synergy Neo) at an excitation wavelength of 535 nm and emission wavelength of 590 nm to obtain relative fluorescence units. Data analysis was done by subtracting the background fluorescence (only medium blank) value from each reading and then normalizing with the vehicle control (DMSO treated cells) to obtain percent survival/proliferation. Percent survival was then subtracted by 100 to get the percent inhibition of proliferation which was used to calculate IC50 values. Potency of compounds in other cell lines (As-Pc-1, Panc-10.05, MDAMB231, A172) was determined in an analogous manner.

A549 cells = test: Cytotoxicity assay (resazurin), A549 cells, 96 hr; format: cell-based; conditions: read-out: Cell Viability A549 IC50
Experimental: as §1

A427 cells [2] = test: Cell proliferation assay (Cell Titer-Glo), A427 cells; format: cell-based; conditions: Homo sapiens, A-427, typically 72 hrs post-treatment
Experimental: (§2) The effects of test compounds were studied in five cell lines with various histotypes. The cancer cells (Table 4) were harvested during the logarithmic growth period and counted. Adjust cell concentrations to the appropriated number with respective medium, and add 90 μL cell suspensions to 96-well plates. After cells were seeded, the plates were shaken gently to distribute cells evenly and incubated at 37° C., 5% CO2 on day 1.
(§3) Cells were treated with test compounds at 9 concentrations within a desired concentration range (e.g. 1.5 nM-10 μM) on day 2 by series diluting the test compound stock solution (10 mM in DMSO) with culture medium. Cell viability was assessed by Cell Titer-Glo® as recommended by Promega (Cat. No.: G7572, Promega) typically 72 hrs post-treatment.
(§4) Cell viability data were plotted using GraphPad Prism (version 5, GraphPad Software, Inc., San Diego, Calif.). In addition, a nonlinear regression model with a sigmoidal dose response and variable slope within GraphPad Prism was used to calculate the IC50 value of individual test compounds.

A427 cells [3] = test: Cell viability in combination with cisplatin in A427 cells (resazurin); format: cell-based; conditions: Homo sapiens, A-427, 24 hr 2.5 μM cisplatin
Experimental: The activity of test compounds in combination with cisplatin in A427 cells was determined. Cells were seeded in a 96 well plate at 2000 cells/well. The next day, cells were treated with 2.5 μM cisplatin or vehicle (1×PBS) and incubated in culture conditions (37° C., 5% CO2) for 24 hr. Following the incubation, culture medium was replaced with medium containing test compound and cisplatin/vehicle, and cells were further incubated in culture conditions for another 72 hr. By this procedure, cisplatin was either continued or discontinued after an initial 24-hr incubation. Addition of test compound was in concentrations needed to obtain an 8-point dose response curve, with concentrations prepared by 3-fold dilution. The assay was terminated upon addition of resazurin, incubation for 4 hr in culture conditions and measurement of fluorescence at excitation and emission wavelengths of 535 and 590 nm, respectively.

As-Pc-1 cells = test: Cytotoxicity assay (resazurin), As-Pc-1 cells; format: cell-based; conditions: Homo sapiens, ASPC1, read-out: Cell Viability AsPC-1 IC50
Experimental: as §1

Panc-10.05 cells = test: Cytotoxicity assay (resazurin), Panc-10.05 cells; format: cell-based; conditions: Homo sapiens, Panc1005, read-out: Cell Viability Panc 10.05 IC50
Experimental: as §1

MDAMB231 cells = test: Cytotoxicity assay (resazurin), MDAMB231 cells; format: cell-based; conditions: Homo sapiens, MDA-MB-231, read-out: Cell Viability MDAMB 231 IC50
Experimental: as §1

A172 cells = test: Cytotoxicity assay (resazurin), A172 cells; format: cell-based; conditions: Homo sapiens, A 172, read-out: Cell Viability A172 IC50
Experimental: as §1

A2780 cells = test: Cell proliferation assay (Cell Titer-Glo), A2780 cells; format: cell-based; conditions: Homo sapiens, typically 72 hrs post-treatment
Experimental: as §2, §3, §4

[4] = Homo sapiens, A-427, read-out: Cell Viability A427 IC50
[5] = then compound + cisplatin 72 hr, read-out: Cell viability IC50 in A427 cells with 2.5 μM cisplatin: 24 hr cisplatin then compound + cisplatin
[6] = then compound alone 72 hr, read-out: Cell viability IC50 in A427 cells with 2.5 μM cisplatin: 24 hr cisplatin then compound

WEE1 kinase enzyme, sequence (P30291 whole entry): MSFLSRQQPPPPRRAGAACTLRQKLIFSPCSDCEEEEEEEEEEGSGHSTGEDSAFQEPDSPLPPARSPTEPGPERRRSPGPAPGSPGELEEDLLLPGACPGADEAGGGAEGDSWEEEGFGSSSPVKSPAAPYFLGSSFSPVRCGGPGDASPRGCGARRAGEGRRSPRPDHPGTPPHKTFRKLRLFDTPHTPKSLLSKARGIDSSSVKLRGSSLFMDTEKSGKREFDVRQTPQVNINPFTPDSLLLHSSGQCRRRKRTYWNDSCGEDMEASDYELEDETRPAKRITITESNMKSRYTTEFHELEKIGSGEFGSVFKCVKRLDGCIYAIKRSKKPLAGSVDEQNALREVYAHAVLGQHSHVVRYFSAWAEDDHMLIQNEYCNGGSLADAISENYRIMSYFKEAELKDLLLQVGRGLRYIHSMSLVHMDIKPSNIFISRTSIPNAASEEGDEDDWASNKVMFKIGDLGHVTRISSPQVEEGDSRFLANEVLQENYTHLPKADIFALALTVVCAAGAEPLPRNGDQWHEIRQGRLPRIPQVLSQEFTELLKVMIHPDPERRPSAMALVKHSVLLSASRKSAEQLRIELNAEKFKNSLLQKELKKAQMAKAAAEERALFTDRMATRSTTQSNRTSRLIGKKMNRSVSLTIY

Compound	IC50 (WEE1 kinase enzyme) [µM]	IC50 (A427 cells [1]; [4]) [µM]	IC50 (A549 cells; Homo sapiens) [µM]	IC50 (A427 cells [2]) [µM]	IC50 (A427 cells [3]; [5]) [µM]	IC50 (A427 cells [3]; [6]) [µM]	IC50 (As-Pc-1 cells) [µM]	IC50 (Panc-10.05 cells) [µM]	IC50 (MDAMB231 cells) [µM]	IC50 (A172 cells) [µM]	IC50 (A2780 cells) [µM]	IC50 (A427 cells [1]; read-out: Cell Viability A427 IC50) [µM]	IC50 (A549 cells) [µM]
O=C1c2cnc(Nc3ccc(N4CCNCC4)cc3)nc2OCN1c1c(Cl)cccc1Cl [Example 1.5]	0.069	3.91	3.78	4.29									
O=C1c2cnc(Nc3ccc(N4CCNCC4)c(CO)c3)nc2OCN1c1c(Cl)cccc1Cl [Example 1.16]	0.049	2.13	3.98	3.04	< 0.014	0.18							
COc1cc(Nc2ncc3c(n2)OCN(c2c(Cl)cccc2Cl)C3=O)ccc1N1CCNCC1 [Example 1.53, 3-(2,6-dichlorophenyl)-7-(3-methoxy-4-(piperazin-1-yl)phenylamino)-2H-pyrimido[5,4-e][1,3]oxazin-4(3H)-one dihydrochloride]	0.033	3.61	4.72				2.41	9.34	10.5	9.68			
O=C1c2cnc(Nc3ccc4c(c3)CNCC43CC3)nc2OCN1c1c(Cl)cccc1Cl [Example 1.51, 3-(2,6-dichlorophenyl)-7-(2′,3′-dihydro-1′H-spiro[cyclopropane-1,4′-isoquinoline]-7′-ylamino)-2H-pyrimido[5,4-e][1,3]oxazin-4(3H)-one]	0.011	3.04	6.45				3.21	3.34	8.76	8			
O=C1c2cnc(Nc3ccc(N4CCNCC4)cc3)nc2OCN1c1c(F)cccc1Cl [Example 1.27]	0.052	6.97	4.39	7.75									
O=C1c2cnc(Nc3ccc4c(c3)CNCC4)nc2OCN1c1c(Cl)cccc1Cl [Example 1.24]	0.035	2.96	6.45	2.85	0.06	0.12							
CN1CCC(c2ccc(Nc3ncc4c(n3)OCN(c3c(Cl)cccc3Cl)C4=O)cc2)CC1 [Example 1.52, 3-(2,6-dichlorophenyl)-7-(4-(1-methylpiperidin-4-yl)phenylamino)-2H-pyrimido[5,4-e][1,3]oxazin-4(3H)-one]	0.0505	3.35	4.72										
CC1(C)NCCc2cc(Nc3ncc4c(n3)OCN(c3c(Cl)cccc3Cl)C4=O)ccc21 [Example 1.227]	0.021	2.2	9.04				2.94	4.93	8.78	6.62			
CNCC(=O)N1CCN(c2ccc(Nc3ncc4c(n3)OCN(c3c(Cl)cccc3Cl)C4=O)cc2)CC1 [Example 1.57, 3-(2,6-dichlorophenyl)-7-(4-(4-(2-(methylamino)acetyl)piperazin-1-yl)phenylamino)-2H-pyrimido[5,4-e][1,3]oxazin-4(3H)-one hydrochloride]	0.101	4.86	6.23										
CN1CCN(c2ccc(Nc3ncc4c(n3)OCN(c3c(Cl)cccc3Cl)C4=O)cc2CO)CC1 [Example 1.20]	0.048	5.5	6.02	3.64									
CC1(C)CNCc2cc(Nc3ncc4c(n3)OCN(c3c(Cl)cccc3Cl)C4=O)ccc21 [Example 1.10]	0.011	1.99	2.6	1.67	< 0.014	0.36					3.85		
N#Cc1cc(Nc2ncc3c(n2)OCN(c2c(Cl)cccc2Cl)C3=O)ccc1N1CCNCC1 [Example 1.55, 5-(3-(2,6-dichlorophenyl)-4-oxo-3,4-dihydro-2H-pyrimido[5,4-e][1,3]oxazin-7-ylamino)-2-(piperazin-1-yl)benzonitrile]	0.106	2.32	1.59		< 0.014	0.53					6.8		
O=C1c2cnc(Nc3ccc(C4CCNCC4)cc3)nc2OCN1c1c(Cl)cccc1Cl [Example 1.12]	0.0735	3.58	4.7	3.43			7.88	3.17	9.04	7.13			
CN1CCN(c2ccc(Nc3ncc4c(n3)OCN(c3c(Cl)cccc3Cl)C4=O)cc2)CC1 [Example 1.1]	0.056	4.47	9.7										
Cc1cc(Nc2ncc3c(n2)OCN(c2c(Cl)cccc2Cl)C3=O)ccc1C1CCNCC1 [Example 1.60]	0.0435	2.58	8.34				2.91	2.85	5.34	4.8			
O=C1c2cnc(Nc3ccc(C4CCNCC4)c(CO)c3)nc2OCN1c1c(Cl)cccc1Cl [Example 1.34, 3-(2,6-dichlorophenyl)-7-(3-(hydroxymethyl)-4-(piperidin-4-yl)phenylamino)-2H-pyrimido[5,4-e][1,3]oxazin-4(3H)-one]	0.014											4.81	21
C[C@@H]1CN[C@@H](C)CN1c1ccc(Nc2ncc3c(n2)OCN(c2c(Cl)cccc2Cl)C3=O)cc1 [Example 1.47, 3-(2,6-dichlorophenyl)-7-(4-((2R,5S)-2,5-dimethylpiperazin-1-yl)phenylamino)-2H-pyrimido[5,4-e][1,3]oxazin-4(3H)-one hydrochloride]	0.07	7.1	4.1										
C[C@@H]1CNCCN1c1ccc(Nc2ncc3c(n2)OCN(c2c(Cl)cccc2Cl)C3=O)cc1 [Example 1.49, (R)-3-(2,6-dichlorophenyl)-7-(4-(2-methylpiperazin-1-yl)phenylamino)-2H-pyrimido[5,4-e][1,3]oxazin-4(3H)-one]	0.041	5.42	4.39										
